Laboratory results from patent publication US20250333530A1 (Hoffmann-La Roche Inc., priority 2024, published 2025).
“Also recorded” adds a separate entry of the source.

How the values were obtained:
serum cytokines [1] = settings: day 10
Experimental: Cytokine measurement was carried out with the Luminex™ FLEXMAP 3D™ system using Bio-Plex Pro Human Cytokine Assay according to the manufacturer's instruction.

serum cytokines [2] = assay: Dexamethasone scheduling with glofitamab: serum cytokines by multiplex assay; assay type: in vivo, humanized BRGS-CD47 mice; settings: for Serum cytokine levels 4 hours after the first glofitamab injection: glofitamab 0.15 mg/kg i.v., dexamethasone co-administered in Groups C-G (2-6 mg/kg orally)
Experimental: Group B animals (n=14) were injected intravenously with glofitamab only (0.15 mg/kg at first and 0.5 mg/kg at subsequent injections in 200 μL of histidine buffer) once weekly for 5 weeks.
Serum was prepared by centrifugation.
Serum was collected and stored at −20° C. Serum samples were diluted 1:10 and used for the analysis of different cytokines/chemokines using the Bio-Plex Pro™ Human Chemokine Panel, 40-Plex system (Catalog No. 171AK99MR2; Bio-Rad; Hercules, CA), following the manufacturer's instructions.

OCI-Ly18 tumor = assay: Dexamethasone scheduling with glofitamab, gemcitabine and oxaliplatin: tumor growth; assay type: in vivo, humanized BRGS-CD47 mice
Experimental: Human OCI-Ly18 (Diffuse Large B-Cell Lymphoma; DLBCL) cells were originally obtained from ATCC and subsequently expanded and deposited in the Roche Glycart internal cell bank. Cells were cultured in RPMI medium containing 10% fetal calf serum (FCS) and 1× GLUTAMAX®. The cells were maintained at 37° C. in a water-saturated atmosphere with 5% CO2. A 50 μL cell suspension (5×10^6 OCI-Ly18 cells) mixed with 50 μL Matrigel was injected subcutaneously into the flank of anesthetized mice using a 22G to 30G needle. […] Health monitoring was performed regularly. At the appropriate time, mice were injected subcutaneously with tumor cells as described and treated with the compounds or histidine buffer (Vehicle; Group A) when tumor size reached approximately 200 mm^3 (Day 7). […] Gemcitabine and oxaliplatin were injected intraperitoneally (i.p.), glofitamab intravenously (i.v.), and dexamethasone was administered via oral gavage. Groups A-D received no dexamethasone: • Group A: vehicle (control group). • Group B: glofitamab monotherapy • Group C: gemcitabine and oxaliplatin. • Group D: glofitamab, gemcitabine and oxaliplatin. […] [table] All mice were injected with the appropriate solutions. […] Subsequent combination treatments were carried out concomitantly. To obtain the proper amount of compounds per injection volume, the stock solutions (Table 20) were diluted with histidine buffer when necessary. Tumor growth was measured three times weekly using a caliper and tumor volume was calculated as followed: The study was terminated at day 60 after a total of 7 cycles of treatment.

[3] = in vivo

For C[C@@H]1C[C@H]2[C@@H]3CCC4=CC(=O)C=C[C@]4(C)[C@@]3(F)[C@@H](O)C[C@]2(C)[C@@]1(O)C(=O)COP(=O)(O)O [dexamethasone, Dexamethasone sodium phosphate], which “Serum IFN-γ and IL-2” value (serum cytokines [1]; Groups F and H) is on record?
Its value is “did not show as strong a reduction”.

What about the “Serum MCP-1 and IL-8” value (serum cytokines [1]; Groups F and H) of the same molecule?
Its value is “statistically reduced”.

What about the “CRS-related serum cytokines, such as IL-6, vs glofitamab monotherapy group” value (serum cytokines [1]; additional dexamethasone injection 24 hours post glofitamab (Groups F and H)) of the same molecule?
Its value is “significant reduction”.

And the “Serum cytokine levels 28 hours after the first glofitamab injection vs glofitamab only” value (serum cytokines [2]; 1 or 2 dexamethasone doses prior to glofitamab only (Groups C and E))?
Its value is “No difference in cytokine levels”.

What about the “IL-6 and IL-10 levels with additional dexamethasone premedication dose” value (serum cytokines [2]; 24-hour pre-glofitamab administration) of the same molecule?
The value was “reduced IL-6, and to some extent IL-10 levels, at the early time point, with no mitigation capacity at the later time point”.

What about the “IL-6 with dexamethasone post treatment dose” value (serum cytokines [2]; 24 hours post-glofitamab administration, 28 hours post-glofitamab time point) of the same molecule?
The value was “mitigated IL-6 at the later time point”.

And the “Levels of some cytokines (e.g., GM-CSF), second dexamethasone dose prior to glofitamab vs only 1 dose” value (serum cytokines [2]; Groups D-G, 4 hours after first glofitamab injection)?
Its value is “further reduced the levels of some cytokines”.

And the “Serum cytokine levels 28 hours after the first glofitamab injection” value (serum cytokines [2]; dexamethasone prior to and after glofitamab injection (Groups D and F), mainly IL-6, MIP1β, MIP1α, TNFα reduced)?
The value was “effectively mitigated cytokine levels for an extended duration; also recorded: very low cytokine levels”.

And the “Serum cytokine levels 4 hours after the first glofitamab injection” value (serum cytokines [2])?
The value was “significantly reduced cytokine levels”.

What about the “Anti-tumor effect of glofitamab + gemcitabine + oxaliplatin with added dexamethasone” value (OCI-Ly18 tumor; dexamethasone 4 mg/kg p.o., Groups E-H, correlated with frequency of dexamethasone administration) of the same molecule?
The value was “improvement in anti-tumor effects”.

And the “Anti-tumor effect vs CD20-TCB and chemotherapy without dexamethasone” value (OCI-Ly18 tumor; dexamethasone 4 mg/kg p.o., Groups G and H (most frequent injections), study termination)?
Its value is “statistically significant better anti-tumor effects”.

With “glofitamab: anti-CD20/anti-CD3 bispecific antibody, 2:1 configuration; CAS 2229047-91-8” as the molecule, how does the “Pharmacokinetics on co-administration with gemcitabine or oxaliplatin” value [3] read?
Its value is “not affected”.

And the “Serum cytokine levels after the second glofitamab injection” value (serum cytokines [2]; 0.5 mg/kg, much lower than after the first cycle)?
Its value is “did not show an increase in cytokine levels”.

What about the “Serum cytokine levels 4 hours after the first glofitamab injection” value (serum cytokines [2]) of the same molecule?
The value was “strong cytokine release”.

What about the “Serum cytokine levels 28 hours after the first glofitamab injection” value (serum cytokines [2]; glofitamab monotherapy (Group B)) of the same molecule?
Its value is “higher cytokine levels”.

And the “Tumor growth (tumor volume) up to day 60” value (OCI-Ly18 tumor; 7 weekly cycles, glofitamab 0.15/0.5 mg/kg i.v., gemcitabine/oxaliplatin 50/3 mg/kg i.p., no dexamethasone (Groups B-D))?
Its value is “initially elicited a robust inhibition of tumor growth, which was subsequently followed by tumor recurrence in all treated mice”.
